Results from ChEMBL document CHEMBL5674886, “GLUT4 expression and glucose transport in human induced pluripotent stem cell-derived cardiomyocytes” (PLoS One, 2019).

Tests used:
Format in all cases: cell-based
[1] = target: T1, Solute carrier family 2, facilitated glucose transporter member 4 (Homo sapiens, UniProt P14672); experiment: Inhibition of human GLUT4 expressed in CHO cells measured after 15 mins by cell-titer-Glo luminescent cell viability assay
T1 sequence (P14672 whole entry): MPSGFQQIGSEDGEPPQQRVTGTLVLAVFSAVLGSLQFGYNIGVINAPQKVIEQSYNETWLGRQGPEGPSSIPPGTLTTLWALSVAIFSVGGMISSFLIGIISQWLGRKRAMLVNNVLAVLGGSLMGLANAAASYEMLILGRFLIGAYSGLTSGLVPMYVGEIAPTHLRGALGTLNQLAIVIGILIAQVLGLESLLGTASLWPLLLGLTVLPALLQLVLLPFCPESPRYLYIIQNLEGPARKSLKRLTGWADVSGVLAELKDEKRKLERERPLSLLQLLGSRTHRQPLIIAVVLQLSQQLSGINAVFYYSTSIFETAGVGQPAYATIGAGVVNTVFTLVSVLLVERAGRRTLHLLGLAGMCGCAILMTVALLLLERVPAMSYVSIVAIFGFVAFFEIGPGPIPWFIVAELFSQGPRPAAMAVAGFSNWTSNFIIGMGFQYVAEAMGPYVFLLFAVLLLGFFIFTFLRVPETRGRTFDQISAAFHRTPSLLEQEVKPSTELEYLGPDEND

[2] = target: T2, Solute carrier family 2, facilitated glucose transporter member 1 (Mus musculus) (UniProt P17809); experiment: Inhibition of GLUT1 in mouse 3T3-L1 cells assessed as reduction in insulin-stimulated [3H]-2-deoxyglucose uptake at 20 nM incubated for 30 mins by [3H]-2-deoxyglucose uptake assay
T2 sequence (whole entry): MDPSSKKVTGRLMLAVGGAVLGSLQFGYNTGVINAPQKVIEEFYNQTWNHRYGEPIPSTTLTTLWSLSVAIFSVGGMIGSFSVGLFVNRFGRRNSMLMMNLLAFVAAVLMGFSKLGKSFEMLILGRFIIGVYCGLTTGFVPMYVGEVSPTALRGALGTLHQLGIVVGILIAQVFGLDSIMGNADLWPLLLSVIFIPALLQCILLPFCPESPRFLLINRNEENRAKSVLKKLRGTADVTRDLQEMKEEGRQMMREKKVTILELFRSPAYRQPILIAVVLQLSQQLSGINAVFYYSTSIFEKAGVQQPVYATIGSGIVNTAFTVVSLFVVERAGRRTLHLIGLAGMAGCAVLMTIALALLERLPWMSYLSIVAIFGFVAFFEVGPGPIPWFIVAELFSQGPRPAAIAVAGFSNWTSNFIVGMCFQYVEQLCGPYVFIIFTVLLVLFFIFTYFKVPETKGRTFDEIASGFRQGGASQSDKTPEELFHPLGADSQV

[3] = target: T2, Solute carrier family 2, facilitated glucose transporter member 1 (Mus musculus); experiment: Inhibition of GLUT1 in mouse 3T3-L1 cells assessed as reduction in insulin-stimulated [3H]-2-deoxyglucose uptake at 2 uM incubated for 30 mins by [3H]-2-deoxyglucose uptake assay

Cc1c(NC(=O)c2cc(C(N)=O)nc3cc(F)ccc23)c(C(F)(F)F)nn1Cc1ccc(C#N)cc1 [BAY-876]
IC50 [1]: 200 nM
inhibition [2]: 25%
inhibition [3]: 100%
